# Measurements reported in US11446287B2, “Compounds and methods for EP300 or CBP modulation and indications therefor” (Opna Immuno-Oncology SA, priority 2019, dated 2022).
# Molecular target: T1, Recombinant human EP300 containing the bromodomain (EP300-BD (1040-1161)) (Homo sapiens, UniProt Q09472)
# T1 construct: Recombinant human EP300 bromodomain (EP300-BD (1040-1161)); made in house; host or cells: E. coli BL21-CodonPlus (DE3), modified pET vector
# T1 sequence (Q09472 1040-1161): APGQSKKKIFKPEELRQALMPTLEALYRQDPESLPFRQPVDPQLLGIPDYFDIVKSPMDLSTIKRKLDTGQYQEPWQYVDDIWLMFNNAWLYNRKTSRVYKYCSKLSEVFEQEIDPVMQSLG
# Experiment: EP300 Alphascreen binding assay
# How it was run: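 Displacement of a biotinylated acetyl-K56 histone H3 peptide from the N-His bromodomain construct (1040-1161) measured by AlphaScreen proximity, beads at 7.5 μg/ml final, read 60 min after addition. Protein, peptide and compound first incubated 1 h at room temperature, pH 7.5 HEPES buffer; IC50 by four-parameter logistic fit.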
row,SMILES,IC50 [nM]
1,"Cc1noc(C)c1-c1cnc2c(c1)c(-c1ccc(C(=O)O)cc1OC(F)(F)F)cn2C(CC#N)C1CC1 (stereo not shown) [P-0199, 4-(1-(2-cyano-1-cyclopropylethyl)-5-(3,5-dimethylisoxazol-4-yl)-1H-pyrrolo[2,3-b]pyridin-3-yl)-3-(trifluoromethoxy)benzoic acid]",0.1 to 1000
2,"Cc1noc(C)c1-c1cnc2c(c1)c(-c1ccc(C(=O)O)cc1OC(F)(F)F)cn2C(CC#N)C1CCCC1 (stereo not shown) [P-0200, 4-(1-(2-cyano-1-cyclopentylethyl)-5-(3,5-dimethylisoxazol-4-yl)-1H-pyrrolo[2,3-b]pyridin-3-yl)-3-(trifluoromethoxy)benzoic acid]",0.1 to 1000
3,"CCOc1cc(C(=O)O)cc(OCC)c1-n1cc(-c2cnc(OC)nc2)c2ncc(-c3c(C)noc3C)cc21 [P-0201, 4-(6-(3,5-dimethylisoxazol-4-yl)-3-(2-methoxypyrimidin-5-yl)-1H-pyrrolo[3,2-b]pyridin-1-yl)-3,5-diethoxybenzoic acid]",0.1 to 1000
4,"Cc1noc(C)c1-c1cnc2c(c1)c(-c1ccc(C(=O)O)cc1OC(F)(F)F)cn2S(=O)(=O)C1CC1 [P-0202, 4-(1-(cyclopropylsulfonyl)-5-(3,5-dimethylisoxazol-4-yl)-1H-pyrrolo[2,3-b]pyridin-3-yl)-3-(trifluoromethoxy)benzoic acid]",0.1 to 1000
5,"Cc1noc(C)c1-c1cnc2c(c1)c(-c1ccc(C(=O)O)cc1OC(F)(F)F)cn2-c1ccnc(C(C)C)c1 [P-0203, 4-(5-(3,5-dimethylisoxazol-4-yl)-1-(2-isopropylpyridin-4-yl)-1H-pyrrolo[2,3-b]pyridin-3-yl)-3-(trifluoromethoxy)benzoic acid]",0.1 to 1000
6,"Cc1noc(C)c1-c1cnc2c(c1)c(-c1ccc(C(=O)O)cc1OC(F)(F)F)cn2-c1cnccc1C#N [P-0204, 4-(1-(4-cyanopyridin-3-yl)-5-(3,5-dimethylisoxazol-4-yl)-1H-pyrrolo[2,3-b]pyridin-3-yl)-3-(trifluoromethoxy)benzoic acid]",0.1 to 1000
7,"CCOc1cc(C(=O)O)cc(F)c1-n1cc(-c2ccccc2)c2ncc(-c3c(C)noc3C)cc21 [P-0205, 4-(6-(3,5-dimethylisoxazol-4-yl)-3-phenyl-1H-pyrrolo[3,2-b]pyridin-1-yl)-3-ethoxy-5-fluorobenzoic acid]",0.1 to 1000
8,"CCOc1cccc(C#N)c1-n1cc(-c2ccccc2)c2ncc(-c3c(C)noc3C)cc21 [P-0206, 2-(6-(3,5-dimethylisoxazol-4-yl)-3-phenyl-1H-pyrrolo[3,2-b]pyridin-1-yl)-3-ethoxybenzonitrile]",0.1 to 1000
9,"Cc1noc(C)c1-c1cnc2c(-c3ccccc3)cn(-c3c(Cl)cccc3C#N)c2c1 [P-0207, 3-chloro-2-(6-(3,5-dimethylisoxazol-4-yl)-3-phenyl-1H-pyrrolo[3,2-b]pyridin-1-yl)benzonitrile]",1000 to 8000
10,"CCOc1cc(C(=O)O)cc(OCC)c1-n1cc(C2=CCC(F)(F)CC2)c2ncc(-c3c(C)noc3C)cc21 [P-0208, 4-(3-(4,4-difluorocyclohex-1-en-1-yl)-6-(3,5-dimethylisoxazol-4-yl)-1H-pyrrolo[3,2-b]pyridin-1-yl)-3,5-diethoxybenzoic acid]",0.1 to 1000
11,"CCOc1cc(C(=O)O)cc(OCC)c1-n1cc(-c2ccc(F)c(Cl)c2)c2ncc(-c3c(C)noc3C)cc21 [P-0209, 4-(3-(3-chloro-4-fluorophenyl)-6-(3,5-dimethylisoxazol-4-yl)-1H-pyrrolo[3,2-b]pyridin-1-yl)-3,5-diethoxybenzoic acid]",0.1 to 1000
12,"CCOc1cc(C(=O)O)cc(OCC)c1-n1cc(CC2CCC2)c2ncc(-c3c(COC)noc3C)cc21 [P-0210, 4-(3-(cyclobutylmethyl)-6-(3-(methoxymethyl)-5-methylisoxazol-4-yl)-1H-pyrrolo[3,2-b]pyridin-1-yl)-3,5-diethoxybenzoic acid]",0.1 to 1000
13,"Cc1cnccc1-n1cc(-c2ccc(C(=O)O)cc2OC(F)(F)F)c2cc(-c3c(C)noc3C)cnc21 [P-0211, 4-(5-(3,5-dimethylisoxazol-4-yl)-1-(3-methylpyridin-4-yl)-1H-pyrrolo[2,3-b]pyridin-3-yl)-3-(trifluoromethoxy)benzoic acid]",0.1 to 1000
14,"Cc1noc(C)c1-c1cnc2c(c1)c(-c1ccc(C(=O)O)cc1OC(F)(F)F)cn2C1CCS(=O)(=O)CC1 [P-0212, 4-(5-(3,5-dimethylisoxazol-4-yl)-1-(1,1-dioxidotetrahydro-2H-thiopyran-4-yl)-1H-pyrrolo[2,3-b]pyridin-3-yl)-3-(trifluoromethoxy)benzoic acid]",0.1 to 1000
15,"Cc1noc(C)c1-c1cnc2c(c1)c(-c1ccc(C(=O)O)cc1OC(C)C)cn2C(C1CC1)C1CC1 [P-0213, 4-(1-(dicyclopropylmethyl)-5-(3,5-dimethylisoxazol-4-yl)-1H-pyrrolo[2,3-b]pyridin-3-yl)-3-isopropoxybenzoic acid]",0.1 to 1000
16,"Cc1noc(C)c1-c1cnc2c(c1)c(-c1ccc(C(=O)O)cc1OCC(F)(F)F)cn2C(C1CC1)C1CC1 [P-0214, 4-(1-(dicyclopropylmethyl)-5-(3,5-dimethylisoxazol-4-yl)-1H-pyrrolo[2,3-b]pyridin-3-yl)-3-(2,2,2-trifluoroethoxy)benzoic acid]",0.1 to 1000

row,SMILES,IC50 [nM]
1,"Cc1noc(C)c1-c1cnc2c(c1)c(-c1ccc(C(=O)O)cc1OC(F)(F)F)cn2-c1ncccc1C#N [P-0215, 4-(1-(3-cyanopyridin-2-yl)-5-(3,5-dimethylisoxazol-4-yl)-1H-pyrrolo[2,3-b]pyridin-3-yl)-3-(trifluoromethoxy)benzoic acid]",0.1 to 1000
2,"Cc1noc(C)c1-c1cnc2c(c1)c(-c1ccc(C(=O)O)cc1OC(F)(F)F)cn2-c1ncccc1C#CC1CC1 [P-0216, 4-(1-(3-(cyclopropylethynyl)pyridin-2-yl)-5-(3,5-dimethylisoxazol-4-yl)-1H-pyrrolo[2,3-b]pyridin-3-yl)-3-(trifluoromethoxy)benzoic acid]",0.1 to 1000
3,"CCOc1cc(C(=O)O)cc(OCC)c1-n1cc(-c2ccc(C#N)cc2F)c2ncc(-c3c(C)noc3C)cc21 [P-0217, 4-(3-(4-cyano-2-fluorophenyl)-6-(3,5-dimethylisoxazol-4-yl)-1H-pyrrolo[3,2-b]pyridin-1-yl)-3,5-diethoxybenzoic acid]",0.1 to 1000
4,"CCOc1cc(C(=O)O)cc(OCC)c1-n1cc(-c2ccc(C(=O)NC3CC3)cc2)c2ncc(-c3c(C)noc3C)cc21 [P-0218, 4-(3-(4-(cyclopropylcarbamoyl)phenyl)-6-(3,5-dimethylisoxazol-4-yl)-1H-pyrrolo[3,2-b]pyridin-1-yl)-3,5-diethoxybenzoic acid]",0.1 to 1000
5,"COC(=O)c1cc(OC)c(-n2cc(-c3ccccc3)c3ncc(-c4c(C)noc4C)cc32)c(OC)c1 [P-0219, methyl 4-(6-(3,5-dimethylisoxazol-4-yl)-3-phenyl-1H-pyrrolo[3,2-b]pyridin-1-yl)-3,5-dimethoxybenzoate]",0.1 to 1000
6,"COc1cc(C(=O)O)cc(OC)c1-n1cc(-c2ccccc2)c2ncc(-c3c(C)noc3C)cc21 [P-0220, 4-(6-(3,5-dimethylisoxazol-4-yl)-3-phenyl-1H-pyrrolo[3,2-b]pyridin-1-yl)-3,5-dimethoxybenzoic acid]",0.1 to 1000
7,"COc1cccc(OC)c1-n1cc(-c2ccccc2)c2ncc(-c3c(C)noc3C)cc21 [P-0221, 4-(1-(2,6-dimethoxyphenyl)-3-phenyl-1H-pyrrolo[3,2-b]pyridin-6-yl)-3,5-dimethylisoxazole]",0.1 to 1000
8,"CCOc1cc(C(=O)O)cc(OCC)c1-n1cc(-c2ccnc(F)c2)c2ncc(-c3c(C)noc3C)cc21 [P-0222, 4-(6-(3,5-dimethylisoxazol-4-yl)-3-(2-fluoropyridin-4-yl)-1H-pyrrolo[3,2-b]pyridin-1-yl)-3,5-diethoxybenzoic acid]",0.1 to 1000
9,"Cc1noc(C)c1-c1cnc2c(c1)c(-c1ccc(C(=O)O)cc1OC(F)(F)F)cn2-c1ccccc1F [P-0223, 4-(5-(3,5-dimethylisoxazol-4-yl)-1-(2-fluorophenyl)-1H-pyrrolo[2,3-b]pyridin-3-yl)-3-(trifluoromethoxy)benzoic acid]",0.1 to 1000
10,"CCOc1cccc(Cl)c1-n1cc(-c2ccccc2)c2ncc(-c3c(C)noc3C)cc21 [P-0224, 4-(1-(2-chloro-6-ethoxyphenyl)-3-phenyl-1H-pyrrolo[3,2-b]pyridin-6-yl)-3,5-dimethylisoxazole]",1000 to 8000
11,"CCOc1ccc(C(=O)O)cc1-n1cc(-c2ccccc2)c2ncc(-c3c(C)noc3C)cc21 [P-0225, 3-(6-(3,5-dimethylisoxazol-4-yl)-3-phenyl-1H-pyrrolo[3,2-b]pyridin-1-yl)-4-ethoxybenzoic acid]",0.1 to 1000
12,"Cc1noc(C)c1-c1cnc2c(c1)c(-c1ccc(C(=O)O)cc1OC(F)(F)F)cn2C1CCOCC1 [P-0226, 4-(5-(3,5-dimethylisoxazol-4-yl)-1-(tetrahydro-2H-pyran-4-yl)-1H-pyrrolo[2,3-b]pyridin-3-yl)-3-(trifluoromethoxy)benzoic acid]",0.1 to 1000
13,"Cc1noc(C)c1-c1cnc2c(c1)c(-c1ccc(C(=O)O)cc1OC(F)(F)F)cn2C1CCC(F)(F)CC1 [P-0227, 4-(1-(4,4-difluorocyclohexyl)-5-(3,5-dimethylisoxazol-4-yl)-1H-pyrrolo[2,3-b]pyridin-3-yl)-3-(trifluoromethoxy)benzoic acid]",0.1 to 1000
14,"Cc1noc(C)c1-c1cnc2c(c1)c(-c1ccc(C(=O)O)cc1OC(F)(F)F)c(C)n2-c1ccccn1 [P-0228, 4-(5-(3,5-dimethylisoxazol-4-yl)-2-methyl-1-(pyridin-2-yl)-1H-pyrrolo[2,3-b]pyridin-3-yl)-3-(trifluoromethoxy)benzoic acid]",0.1 to 1000
15,"Cc1noc(C)c1-c1cnc2c(-c3ccc(F)cc3F)cn(-c3ccc(C(=O)O)cc3OC(F)(F)F)c2c1 [P-0229, 4-(3-(2,4-difluorophenyl)-6-(3,5-dimethylisoxazol-4-yl)-1H-pyrrolo[3,2-b]pyridin-1-yl)-3-(trifluoromethoxy)benzoic acid]",0.1 to 1000
